Experimental data from patent US6395740B1, “Calcitonin mimetics” (ZymoGenetics, Inc., priority 1997, dated 2002).
≈ marks a conversion by molar mass, not a printed value.

Legend:
[1] = test system: PTH-induced bone resorption in mouse calvariae; assay: Calvarial assay: inhibition of PTH-induced bone resorption (calcium release); type: cell-based; details: 1 nM PTH 1-34, 72 hours, read-out: Release of PTH Induced Ca++ IC50
Description: Calvaria from 4-day old neonatal CD-1 mice (pregnant mice received from Charles River Laboratories, Wilmington, Mass.) were trimmed with fine-tipped scissors to leave the parietal regions, including the sagittal suture. These trimmed bones were placed singly per well into 6-well cell culture cluster plates (Costar, Pleasanton, Calif.) with 1 mL/well of growth medium (DMEM, BioWhittaker, Walkersville, Md.) with 4.5 g/L glucose, 0.29 mg/mL L-glutamine, 1 mM sodium pyruvate, 15% heat-inactivated horse serum, and antibiotics (penicillin-G 50 μg/mL, streptomycin 50 μg/mL, and neomycin 100 μg/mL), and rocked gently (RedRocker™, model PR50-115V, Hoefer, San Francisco, Calif.) at 37° C. in a 5% CO2 humidified incubator for 24 hours preincubation.
Following preincubation, medium was removed and replaced with 1.5 mL/well of growth medium containing 1 nM parathyroid hormone (PTH) 1-34 (Sigma) to stimulate bone resorption. For evaluation of the ability of calcitonin mimetics to inhibit PTH induced bone resorption, mimetic compounds in DMSO were added to the growth medium at concentrations ranging from 1-400 μg/mL (final assay concentration of DMSO less than or equal to […]). In each exierimerec human calcitonin (0.02-20 nM, 0.2-2 nM preferred) was added to PTH treated bones as a positive control. […] All control wells contained a final assay concentration of DMSO equal to that present in calcitonin mimetic treated wells.
Five bones were included in each sample group. Bones were incubated for 72 hours following PTH addition to allow resorption of bone to occur. Observations were made of the general appearance, healthiness and number of cells that migrate from the calvaria during the incubation as a possible indication of possible toxicity. Calvaria to be examined histologically were transferred to glass scintillation vials containing 10 mL of 10% neutral buffered formalin. The medium was removed from the wells, and total calcium measurements were made using a Nova 7/7+7 Electrolyte Analyzer (Nova Biomedical, Waltham, Mass.) according to the manufacturer's specifications. Induction of bone resorption by PTH is seen as an increase in the concentration of calcium in the growth medium due to degradation of the bone matrix.

[2] = molecular target: T1, human calcitonin receptor (Homo sapiens, UniProt P30988); assay: CRE-luciferase assay for calcitonin mimetic activity; type: cell-based
T1 construct: expressed in transfected cells; host or cells: BHK (baby hamster kidney) cells, line Hollex-2 (Hollex 1 in the general description)
T1 sequence (P30988 25-474): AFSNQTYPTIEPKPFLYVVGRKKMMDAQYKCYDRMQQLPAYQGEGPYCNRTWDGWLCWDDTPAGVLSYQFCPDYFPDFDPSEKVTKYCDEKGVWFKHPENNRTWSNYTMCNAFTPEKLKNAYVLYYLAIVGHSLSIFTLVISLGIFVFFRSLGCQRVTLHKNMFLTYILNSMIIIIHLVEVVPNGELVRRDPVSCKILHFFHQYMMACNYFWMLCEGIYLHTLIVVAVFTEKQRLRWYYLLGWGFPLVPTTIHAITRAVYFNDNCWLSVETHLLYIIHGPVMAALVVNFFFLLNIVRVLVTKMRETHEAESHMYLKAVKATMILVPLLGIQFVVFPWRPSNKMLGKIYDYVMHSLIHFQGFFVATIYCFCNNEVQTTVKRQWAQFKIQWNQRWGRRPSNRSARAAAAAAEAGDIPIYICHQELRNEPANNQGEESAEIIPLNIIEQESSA
Source text: An alternative assay system (described in WO96/31536 which is incorporated herein in its entirety) involves selection of substances that are able to induce expression of a cyclic AMP response element (CRE)-luciferase reporter gene, as a consequence of elevated cAMP levels, in cells expressing a calcitonin receptor, but not in cells lacking calcitonin receptor expression. Such cells could include, for example, Boris/KS10-3 (expressing hamster calcitonin receptor and a CRE-luciferase reporter gene in baby hamster kidney cells (BHK 570 cells)) or Hollex 1 (expressing human calcitonin receptor and a CRE-luciferase reporter gene in BHK cells, as described in WO96/31536) or KZ10-20-48/pLJ6-4-25, which expresses the human glucagon receptor and a CRE-luciferase reporter gene in BHK cells. The human glucagon receptor is another member of the G-protein-coupled receptor family that transduces signal through adenylate cyclase-mediated elevation of cAMP.
This CRE-luciferase assay measures the end result of a multi-step signal transduction pathway triggered when a calcitonin mimetic stimulates the G-coupled calcitonin receptor. The complexity of this pathway provides multiple mechanisms for induction of luciferase transcription at points that are downstream of the calcitonin receptor, and therefore may not be calcitonin receptor-specific (e.g., forskolin's direct activation of adenylate cyclase). Any response triggered by non-specific inducers is eliminated by counter screening using the calcitonin receptor-negative cell lines described above.
Receptor-positive and -negative cell lines were maintained by serial passage in growth medium (DMEM supplemented with 10% heat-inactivated fetal calf serum (HI-FCS), 2 mM L-glutamine, 1 mM sodium pyruvate, 250 nM MTX, and 1 mg/mL G418). On the day prior to assay, cells were trypsinized, adjusted to 2×10^5 cells/mL in growth medium, plated in opaque white Dynatech Microlite microtiter tissue culture plates at 100 μL/well (2×10^4 cells), and grown overnight to confluence (37° C., 5% CO2 atmosphere)
Test substances were prepared in DMSO at 100 times the final desired assay concentration. Induction was initiated by adding 100 μL/well test substance diluted 1:100 or 1:1000 (only first round screening extracts were diluted 1:100) in assay medium (DMEM supplemented with 10% HI-FCS, 2 mM L-glutamine, 1 mM sodium pyruvate and 20 mM Hepes, pH 7.25). Controls were included on each plate: untreated wells (basal), […] forskolin, and 100 nM human calcitonin. For test substances prepared in DMSO, an equal concentration of DMSO was included in control wells (not to exceed a final assay concentration of 2% DMSO, with a preferred maximum of 1%). Plates were incubated for 3 to 8 hours (4 hours preferred) at 37° C. in an atmosphere of 5% CO2.
Following induction, luciferase activity was measured using a Promega luciferase assay kit (E1500) according to the assay kit protocol. Briefly, assay medium was removed and cells were washed once with phosphate buffered saline (PBS). After the wash, 25 μL of lysis buffer was added to each well, and the plates were incubated for 15 minutes at room temperature. Fifty microliters of Luciferase Assay Substrate (Promega, Corp.) was added to each well and the plates were transferred to a Labsystems Lumiscan microtiter luminometer. The amount of luminescence (relative light units, RLU) was determined by “Fastscan” following a 0.1 second/well integration of signal. Basal (uninduced) luciferase signal was subtracted from all measurements, and the luciferase signal induced by test samples was expressed as a percentage of the signal in the calcitonin and forskolin controls. […]

IC50 [1]: 25 to 50 µg/mL (≈ 61.1 to 122 µM)
EC50 [2]: 61.1 to 122 µM
SMILES: COc1cc(CN2CCN(C(=O)Nc3cccc(C(F)(F)F)c3)CC2)ccc1O [Compound 850-0231]
